Source: patent US8691757B2 (Bristol-Myers Squibb Company, priority 2011, dated 2014)

Columns and labels:
[1] = test system: HCV genotype 1a (H77 strain) replicon in HUH-7 cells; assay: HCV replicon luciferase reporter assay, genotype 1a; type: cell-based; conditions: Hepatitis C virus, 72 h, HCV genotype 1a replicon, 3 days incubation, Renilla luciferase
How it was run: (§1)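 Stable HUH-7 replicon lines (1b Con1 with S1179I; 1a H77 with P1496L and S2204I) carrying Renilla luciferase were incubated 3 days at 37 °C with compound in 4% FCS, 0.5% DMSO. Luminescence was read after 2 h with 7.5 μM EnduRen, EC50 from four-parameter logistic fit; CC50 came from multiplexed Cell Titer-Blue (8 h).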

[2] = test system: HCV genotype 1b (Con1) replicon in HUH-7 cells; assay: HCV replicon luciferase reporter assay, genotype 1b; type: cell-based; conditions: Hepatitis C virus, 72 h, HCV genotype 1b replicon, 3 days incubation, Renilla luciferase
How it was run: as §1

Row | SMILES | EC50 ([1]; numeric values) [nM] | EC50 ([2]; numeric values) [nM] | EC50 ([1]; range classes) [nM] | EC50 ([2]; range classes) [nM]
1 | COc1cnc(O[C@@H]2C[C@H]3C(=O)N[C@]4(C(=O)NS(=O)(=O)C5(C)CC5)C[C@H]4/C=C\[C@H](C)CCC[C@@H](C)[C@H](NC(=O)OC(C)(C)C(F)(F)F)C(=O)N3C2)c2ccccc12 [Compound 35, 1,1,1-trifluoro-2-methylpropan-2-yl (2R,6S,7R,11R,13aS,14aR,16aS,Z)-2-(4-methoxyisoquinolin-1-yloxy)-7,11-dimethyl-14a-(1-methylcyclopropylsulfonylcarbamoyl)-5,16-dioxo-1,2,3,5,6,7,8,9,10,11,13a,14,14a,15,16,16a-hexadecahydrocyclopropa[e]pyrrolo[1,2-a][1,4]diazacyclopentadecin-6-ylcarbamate] | 1.96 | 0.51 | – | –
2 | COc1cc2c(OC)cnc(O[C@@H]3C[C@H]4C(=O)N[C@]5(C(=O)NS(=O)(=O)C6CC6)C[C@H]5/C=C\[C@H](C)CCC[C@@H](C)[C@H](NC(=O)OC(C)(C)C(F)(F)F)C(=O)N4C3)c2cc1F [Compound 33, 1,1,1-trifluoro-2-methylpropan-2-yl (2R,6S,7R,11R,13aS,14aR,16aS,Z)-14a-(cyclopropylsulfonylcarbamoyl)-2-(7-fluoro-4,6-dimethoxyisoquinolin-1-yloxy)-7,11-dimethyl-5,16-dioxo-1,2,3,5,6,7,8,9,10,11,13a,14,14a,15,16,16a-hexadecahydrocyclopropa[e]pyrrolo[1,2-a][1,4]diazacyclopentadecin-6-ylcarbamate] | – | – | 2.01 to 5 | 1.01 to 2
3 | COc1ccc2c(O[C@@H]3C[C@H]4C(=O)N[C@]5(C(=O)NS(=O)(=O)C6(CF)CC6)C[C@H]5/C=C\[C@H](C)CCC[C@@H](C)[C@H](NC(=O)OC(C)(C)C(F)(F)F)C(=O)N4C3)ncc(OC)c2c1 [Compound 12] | – | – | 2.01 to 5 | 1.01 to 2
4 | COc1cnc(O[C@@H]2C[C@H]3C(=O)N[C@]4(C(=O)NS(=O)(=O)C5CC5)C[C@H]4/C=C\[C@H](C)CCC[C@@H](C)[C@H](NC(=O)OC(C)(C)C)C(=O)N3C2)c2cc(F)ccc12 [Compound 23, tert-butyl (2R,6S,7R,11R,13aS,14aR,16aS,Z)-14a-(cyclopropylsulfonylcarbamoyl)-2-(7-fluoro-4-methoxyisoquinolin-1-yloxy)-7,11-dimethyl-5,16-dioxo-1,2,3,5,6,7,8,9,10,11,13a,14,14a,15,16,16a-hexadecahydrocyclopropa[e]pyrrolo[1,2-a][1,4]diazacyclopentadecin-6-ylcarbamate] | – | – | 5.01 to 68 | 5.01 to 68
